This note sets out measurements from patent US5763405A, “Stabilized composition for oral administration of peptides” (Ferring B.V., priority 1994, dated 1998).

The conditions of this series: pH 6.5.

Experimental: A tube was introduced intranasally after local anaesthesia with xylocaine, and gastric juice was collected. Thereafter one standardized meal was given 1 h before sampling of duodenal and distal jejunum juice and another the next morning before the collection of distal ileal juice. After centrifugation the gastric and intestinal juices were frozen in aliquots of 1 ml and stored at -20° C. Degradation method. The peptide or peptide analog (10 μl of 10 mM peptide in 0.9% aqueous NaCl) was added to 190 μl of undiluted juice at 370° C. Aliquots of 25 μl were withdrawn at intervals and mixed with 100 μl acetone to stop the reaction. After centrifugation for 10 min at 10,000 g, 10 μl of the supernatiant was analyzed by reversed phase HPLC. Determination of peptide degradation. Analysis was carried out in a Varian 5000 HPLC analyzer equipped with a UV-detector (220 nm). Column Bondapak TM C18 (3.9×300 mm), eluant MeOH/0.025M NH4 Ac (isocratic conditions), flow rate 1 ml/min. Protein and pH determination. Protein: Bio-Rad protein assay. pH: Orion model SA720; pH-paper Merck (Darmstadt), range 4.0-7.0.

On to `NC(=O)CC[C@@H]1NC(=O)[C@H](Cc2ccccc2)NC(=O)[C@H](Cc2ccc(O)cc2)NC(=O)CCSSC[C@@H](C(=O)N2CCC[C@H]2C(=O)N[C@H](CCCN=C(N)N)C(=O)NCC(N)=O)NC(=O)[C@H](CC(N)=O)NC1=O` [DDAVP, Mpa--Tyr--Phe--Gln--Asn--Cys--Pro--D--Arg--Gly--GlyNH2 (SEQ ID NO: 3)], for which the “DDAVP degraded (to about 50%)” value is recorded as “about 50%”.
